Experimental data: the supplement of paper PMC13207355

What was measured:
Settings in all cases: exposure time: 72 h
[1] = test system: E13 (patient-derived glioblastoma stem cells of classical subtype); assay: surviving fraction (nuclei count normalised to DMSO); higher = more cells surviving (less toxic)
[2] = test system: E21 (patient-derived glioblastoma stem cells of mesenchymal subtype); assay: as above
[3] = test system: E28 (patient-derived glioblastoma stem cells of classical subtype); assay: as above
[4] = test system: E31 (patient-derived glioblastoma stem cells of proneural subtype); assay: as above
[5] = test system: E34 (patient-derived glioblastoma stem cells of proneural subtype); assay: as above
[6] = test system: E57 (patient-derived glioblastoma stem cells of mesenchymal subtype); assay: as above
[7] = test system: FT3469 (normal neural stem cell line); assay: as above
[8] = test system: E13; assay: phenotypic distance (Euclidean, principal components) from DMSO controls (arbitrary units); higher = stronger morphological change
[9] = test system: E21; assay: as above
[10] = test system: E28; assay: as above
[11] = test system: E31; assay: as above
[12] = test system: E34; assay: as above
[13] = test system: E57; assay: as above
[14] = test system: FT3469; assay: as above
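Wherever phenotypic distance (Euclidean, principal components) from DMSO controls is given: cell Painting imaging in 384-well plates, CellProfiler features reduced to at least 20 principal components, Euclidean distance versus same-plate DMSO vehicle wells (0.1% v/v), median over six images per well.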
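Wherever surviving fraction (nuclei count normalised to DMSO) is given: nuclei counted by high-content imaging of Hoechst-stained cells in laminin-coated 384-well plates, relative to 0.1% DMSO vehicle wells, with staurosporine as cell-death control.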

`O=C1CCc2cc(OCCCCc3nnnn3C3CCCCC3)ccc2N1` [Cilostazol] showed a surviving fraction ([1]; 4.1 nM) of 0.989, a surviving fraction ([1]; 12.3 nM) of 1.04 and a surviving fraction ([1]; 37 nM) of 1.01. The surviving fraction ([1]; 111.1 nM) was 0.931, the surviving fraction ([1]; 333.3 nM) was 0.933 and the surviving fraction ([1]; 1000 nM) was 0.98. It also gave a surviving fraction ([1]; 3000 nM) of 0.897, a surviving fraction ([2]; 4.1 nM) of 0.933 and a surviving fraction ([2]; 12.3 nM) of 1.09. The surviving fraction ([2]; 37 nM) was 1.03, the surviving fraction ([2]; 111.1 nM) was 1.04 and the surviving fraction ([2]; 333.3 nM) was 0.973. It also gave a surviving fraction ([2]; 1000 nM) of 0.949, a surviving fraction ([2]; 3000 nM) of 0.934 and a surviving fraction ([3]; 4.1 nM) of 0.916. The surviving fraction ([3]; 12.3 nM) was 1.13, the surviving fraction ([3]; 37 nM) was 0.892 and the surviving fraction ([3]; 111.1 nM) was 1.2. The surviving fraction ([3]; 333.3 nM) was 1.01, the surviving fraction ([3]; 1000 nM) was 1.12 and the surviving fraction ([3]; 3000 nM) was 0.914. The surviving fraction ([4]; 4.1 nM) was 0.919, the surviving fraction ([4]; 12.3 nM) was 1.04 and the surviving fraction ([4]; 37 nM) was 0.905. For the same compound, the surviving fraction ([4]; 111.1 nM) was 0.98, the surviving fraction ([4]; 333.3 nM) was 0.963 and the surviving fraction ([4]; 1000 nM) was 0.832. It also gave a surviving fraction ([4]; 3000 nM) of 0.832, a surviving fraction ([5]; 4.1 nM) of 0.904 and a surviving fraction ([5]; 12.3 nM) of 1.1. For the same compound, the surviving fraction ([5]; 37 nM) was 0.938, the surviving fraction ([5]; 111.1 nM) was 0.937 and the surviving fraction ([5]; 333.3 nM) was 1.05. The surviving fraction ([5]; 1000 nM) was 1.04, the surviving fraction ([5]; 3000 nM) was 0.959 and the surviving fraction ([6]; 4.1 nM) was 0.991. The surviving fraction ([6]; 12.3 nM) was 0.969, the surviving fraction ([6]; 37 nM) was 0.975 and the surviving fraction ([6]; 111.1 nM) was 1.04. It also gave a surviving fraction ([6]; 333.3 nM) of 0.91, a surviving fraction ([6]; 1000 nM) of 0.839 and a surviving fraction ([6]; 3000 nM) of 0.817. It also gave a surviving fraction ([7]; 4.1 nM) of 1.03, a surviving fraction ([7]; 12.3 nM) of 1.03 and a surviving fraction ([7]; 37 nM) of 0.96. It also gave a surviving fraction ([7]; 111.1 nM) of 1.02, a surviving fraction ([7]; 333.3 nM) of 0.949 and a surviving fraction ([7]; 1000 nM) of 1.16. It also gave a surviving fraction ([7]; 3000 nM) of 0.891, a phenotypic distance ([8]; 4.1 nM) of 0.5 and a phenotypic distance ([8]; 12.3 nM) of 0.664. The phenotypic distance ([8]; 37 nM) was 1.06, the phenotypic distance ([8]; 111.1 nM) was 0.612 and the phenotypic distance ([8]; 333.3 nM) was 0.287. For the same compound, the phenotypic distance ([8]; 1000 nM) was 0.5, the phenotypic distance ([8]; 3000 nM) was 0.553 and the phenotypic distance ([9]; 4.1 nM) was 0.676. The phenotypic distance ([9]; 12.3 nM) was 1.17, the phenotypic distance ([9]; 37 nM) was 1.02 and the phenotypic distance ([9]; 111.1 nM) was 1.46. The phenotypic distance ([9]; 333.3 nM) was 0.998, the phenotypic distance ([9]; 1000 nM) was 1.13 and the phenotypic distance ([9]; 3000 nM) was 1.15. For the same compound, the phenotypic distance ([10]; 4.1 nM) was 0.648, the phenotypic distance ([10]; 12.3 nM) was 0.777 and the phenotypic distance ([10]; 37 nM) was 0.65. It also gave a phenotypic distance ([10]; 111.1 nM) of 1.01, a phenotypic distance ([10]; 333.3 nM) of 1.82 and a phenotypic distance ([10]; 1000 nM) of 0.846. The phenotypic distance ([10]; 3000 nM) was 0.458, the phenotypic distance ([11]; 4.1 nM) was 0.904 and the phenotypic distance ([11]; 12.3 nM) was 0.814. The phenotypic distance ([11]; 37 nM) was 0.863, the phenotypic distance ([11]; 111.1 nM) was 0.598 and the phenotypic distance ([11]; 333.3 nM) was 0.893. For the same compound, the phenotypic distance ([11]; 1000 nM) was 0.881, the phenotypic distance ([11]; 3000 nM) was 0.868 and the phenotypic distance ([12]; 4.1 nM) was 0.293. It also gave a phenotypic distance ([12]; 12.3 nM) of 0.701, a phenotypic distance ([12]; 37 nM) of 0.573 and a phenotypic distance ([12]; 111.1 nM) of 1.28. It also gave a phenotypic distance ([12]; 333.3 nM) of 0.55, a phenotypic distance ([12]; 1000 nM) of 0.46 and a phenotypic distance ([12]; 3000 nM) of 0.733. For the same compound, the phenotypic distance ([13]; 4.1 nM) was 0.508, the phenotypic distance ([13]; 12.3 nM) was 0.665 and the phenotypic distance ([13]; 37 nM) was 0.802. The phenotypic distance ([13]; 111.1 nM) was 0.893, the phenotypic distance ([13]; 333.3 nM) was 1.16 and the phenotypic distance ([13]; 1000 nM) was 1.49. It also gave a phenotypic distance ([13]; 3000 nM) of 1.42, a phenotypic distance ([14]; 4.1 nM) of 0.483 and a phenotypic distance ([14]; 12.3 nM) of 0.448. The phenotypic distance ([14]; 37 nM) was 0.352, the phenotypic distance ([14]; 111.1 nM) was 0.643 and the phenotypic distance ([14]; 333.3 nM) was 3.23. For the same compound, the phenotypic distance ([14]; 1000 nM) was 0.826 and the phenotypic distance ([14]; 3000 nM) was 0.541.
